Literature values in patent US20220119489A1, “COMPOSITIONS AND METHODS FOR TREATING MUSCULAR DYSTROPHY AND RELATED DISORDERS” (CHILDREN'S MEDICAL CENTER CORPORATION, priority 2019, published 2022).

What was measured:
CD82 [1] = conditions: stated as previously shown, no test described
CD82 [2] = conditions: Pompe disease patients under treatment

Compound	expression of CD82 (CD82 [1])	increase of muscle CD82 expression compared to baseline levels (CD82 [2])
C[C@]12COC(=O)C[C@@H]1CC[C@@H]1[C@@H]2CC[C@@]2(C)[C@H]1CC[C@]2(C)O [oxandrolone]	increase expression of CD82	
CC(=O)C(=O)[O-].[Na+] [sodium pyruvate]	increase expression of CD82	
recombinant human lysosomal acid alpha glucosidase: recombinant enzyme used to treat Pompe disease patients		25-50%
